Reference: patent US6291485A, “4,5-dihydro-[1H]-benz[g]indazole-3-carboxylic acid derivatives” (Teikoku Hormone Mfg. Co., Ltd., priority 1997, dated 2001)

Tests used:
[1] = target: T1, ETB receptor (Homo sapiens, UniProt P24530); test: binding of 125I-ET-1 to crude receptor membrane fraction from the human placenta (ETB); conditions: human placenta membranes, 125I-ET-1, 25° C., 120 minutes, pH 7.0
T1 construct: a crude receptor membrane fraction from the human placenta; from tissue; host or cells: human placenta, crude membrane fraction
T1 sequence (P24530 27-442): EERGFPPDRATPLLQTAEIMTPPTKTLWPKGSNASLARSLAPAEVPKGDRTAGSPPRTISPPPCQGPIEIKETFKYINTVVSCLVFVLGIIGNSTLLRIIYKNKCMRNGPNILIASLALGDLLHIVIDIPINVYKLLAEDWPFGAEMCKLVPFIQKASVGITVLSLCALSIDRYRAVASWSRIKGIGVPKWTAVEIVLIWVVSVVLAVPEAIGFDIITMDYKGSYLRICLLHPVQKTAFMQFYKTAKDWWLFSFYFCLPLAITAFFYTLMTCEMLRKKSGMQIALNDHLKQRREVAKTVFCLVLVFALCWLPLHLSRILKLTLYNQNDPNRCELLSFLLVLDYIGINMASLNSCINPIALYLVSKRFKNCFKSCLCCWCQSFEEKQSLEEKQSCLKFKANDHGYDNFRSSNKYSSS
Experimental: (§1) (1) Measurement of Antagonism to Endothelin Receptors
(§2) Among the endothelin (ET) receptor subtypes, the binding of ET to the ETA and ETB subtypes was measured by using a crude receptor membrane fraction from the porcine thoracic aorta and a crude receptor membrane fraction from the human placenta, respectively. The tissue (about 40 g) as washed, minced with scissors, and homogenized in 4 volumes of solution A [20 mM HEPES (N-2-hydroxyethylpiperazine-N'-2-ethanesulfonic acid), 3 mM EGTA (ethylene glycol bis(β-aminoethyl ether)-N,N,N',N'-tetraacetic acid), 5 mM EDTA (ethylenediaminetetraacetic acid), 2 μg/ml aprotinin, 3 μg/ml leupeptin, 3 μg/ml pepstatin A, 0.25 mg/ml bacitracin, 0.25 M sucrose] by means of an Ultra-turrax. The resulting homogenate was centrifuged at 8,000 g for 20 minutes, and the supernatant was further centrifuged at 80,000 g for 60 minutes. The precipitate was suspended in solution A and used as a crude receptor membrane fraction, which was divided into portions and stored in a frozen state at -70° C. As a radioligand, 325 Bq of ^125 I-ET-1 (81.4 TBq/mmol; manufactured by DuPont-New England Nuclear, Boston, Mss., U.S.A) was placed in a test tube. Then, the crude receptor membrane fraction (20 μg as protein) and a test compound were added thereto. Nonspecific binding was measured by the addition of 125 nM ET-1. The reaction was carried out in solution B [30 mM HEPES, 0.15 M NaCl, 5 mM MgCl2, 0.5 mg/ml bacitracin, 1 mg/ml bovine serum albumin, pH 7.0) at 25° C. for 120 minutes. In order to separate the free radioactive ligand from the membrane-bound one, the reaction mixture was quickly filtered through a glass filter treated with 0.3% polyethylene-imine (GF/C; manufactured by Whatman Inc., U.S.A.) and washed twice with ice-cold solution B. Thereafter, the radioactivity remaining on the filter was measured with a gamma counter.

[2] = target: T2, ETA receptor (Sus scrofa, UniProt Q29010); test: binding of 125I-ET-1 to crude receptor membrane fraction from the porcine thoracic aorta (ETA); conditions: porcine thoracic aorta membranes, 125I-ET-1, 25° C., 120 minutes, pH 7.0
T2 construct: crude receptor membrane fraction from the porcine thoracic aorta; from tissue; host or cells: porcine thoracic aorta, crude membrane fraction
T2 sequence (Q29010 21-427): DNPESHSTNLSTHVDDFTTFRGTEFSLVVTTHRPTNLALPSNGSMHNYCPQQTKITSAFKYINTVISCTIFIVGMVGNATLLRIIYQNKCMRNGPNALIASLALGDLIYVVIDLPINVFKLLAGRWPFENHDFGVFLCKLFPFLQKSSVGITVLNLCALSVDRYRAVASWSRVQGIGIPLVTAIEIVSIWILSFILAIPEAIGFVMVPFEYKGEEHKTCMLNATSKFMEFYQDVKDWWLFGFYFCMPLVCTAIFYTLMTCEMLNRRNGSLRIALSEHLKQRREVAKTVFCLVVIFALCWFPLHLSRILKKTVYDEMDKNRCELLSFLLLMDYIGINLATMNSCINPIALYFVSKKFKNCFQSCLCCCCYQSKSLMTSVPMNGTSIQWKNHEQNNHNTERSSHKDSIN
Experimental: as §1, §2

[3] = target: T3, phosphodiesterase III (Cavia porcellus, UniProt H0VIU9); test: inhibitory effect on phosphodiesterase III ([3H] cAMP conversion, enzyme fraction from guinea pig hearts); assay type: biochemical; conditions: for IC50: guinea pig heart enzyme, 0.1 μM [3H] cAMP, 30° C., 10 minutes, pH=8.0; for inhibitory effect on phosphodiesterase III: statement in words
T3 construct: hearts excised from male Hartley strain guinea pigs (400-600 g); from tissue; host or cells: guinea pig heart, 40,000 g supernatant, DEAE-cellulose fraction
T3 sequence (H0VIU9 1-1132): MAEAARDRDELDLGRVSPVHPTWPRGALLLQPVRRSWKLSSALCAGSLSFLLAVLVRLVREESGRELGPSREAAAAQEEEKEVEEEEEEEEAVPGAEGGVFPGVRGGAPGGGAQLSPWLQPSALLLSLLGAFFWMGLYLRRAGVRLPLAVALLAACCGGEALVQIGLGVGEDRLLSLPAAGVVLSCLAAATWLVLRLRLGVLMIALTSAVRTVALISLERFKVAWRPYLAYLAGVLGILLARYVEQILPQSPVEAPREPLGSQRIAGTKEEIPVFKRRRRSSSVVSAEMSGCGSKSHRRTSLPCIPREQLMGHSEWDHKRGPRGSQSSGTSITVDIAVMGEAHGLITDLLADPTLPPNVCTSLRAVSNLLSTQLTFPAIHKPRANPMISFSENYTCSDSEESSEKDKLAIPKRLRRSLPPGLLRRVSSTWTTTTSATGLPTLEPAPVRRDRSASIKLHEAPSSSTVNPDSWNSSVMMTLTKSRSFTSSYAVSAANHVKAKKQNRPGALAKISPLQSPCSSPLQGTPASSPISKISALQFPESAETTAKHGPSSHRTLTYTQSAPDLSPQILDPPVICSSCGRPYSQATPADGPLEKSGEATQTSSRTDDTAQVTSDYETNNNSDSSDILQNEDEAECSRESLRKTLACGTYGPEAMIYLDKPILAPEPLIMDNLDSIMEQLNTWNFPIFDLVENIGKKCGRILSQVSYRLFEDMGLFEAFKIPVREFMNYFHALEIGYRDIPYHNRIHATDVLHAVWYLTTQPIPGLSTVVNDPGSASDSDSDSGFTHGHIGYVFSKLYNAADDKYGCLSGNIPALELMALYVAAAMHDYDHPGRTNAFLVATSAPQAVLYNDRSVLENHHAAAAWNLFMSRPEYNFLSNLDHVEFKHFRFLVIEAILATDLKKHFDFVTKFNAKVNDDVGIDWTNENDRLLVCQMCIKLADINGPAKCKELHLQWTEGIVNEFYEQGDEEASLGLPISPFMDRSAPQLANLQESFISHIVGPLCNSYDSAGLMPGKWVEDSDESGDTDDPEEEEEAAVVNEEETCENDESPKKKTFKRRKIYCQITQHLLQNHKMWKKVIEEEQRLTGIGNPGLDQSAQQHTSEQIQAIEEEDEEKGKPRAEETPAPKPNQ
Experimental: Phosphodiesterase III was prepared according to the method of Frodsham et al. (Eur. J. Pharmacol., Vol. 211, pp. 383-391, 1992).
Specifically, hearts excised from male Hartley strain guinea pigs (400-600 g) were placed in 8 volumes of solution C [10 mM trishydroxymethyl)aminomethane-acetic acid buffer (pH=7.5), 2 mM magnesium chloride, 1 mM dithiothreitol, 2,000 units/ml aprotinin, 50 μM phenylmethylsulfonyl fluoride], minced with scissors, and homogenized three times for 10 seconds by means of a Polytron. The resulting homogenate was centrifuged at 40,000 g for 30 minutes, and the supernatant was applied onto a DEAE-cellulose column and eluted with a linear concentration gradient ranging from 0.2 M to 0.6 M sodium acetate (pH 6.5). The fractions eluted at 0.4-0.5 M were pooled and used as a phosphodiesterase III enzyme fraction.
Specifically, a test compound and the phosphodiesterase III enzyme fraction were added to 0.4 ml of a reaction solution [40 mM tris(hydroxymethyl)aminomethane-hydrochloric acid buffer (pH=8.0), 5 mM magnesium chloride, 1 mM dithiothreitol, 0.1 μM [^3 H] cAMP]. This mixture was reacted at 30° C. for 10 minutes. After completion of the reaction, 5'-nuclease was added thereto so as to convert [^3 H] 5'-AMP, which was the reaction product with phosphodiesterase III, to [^3 H] adenosine. Then, the [^3 H] cAMP and [^3 H] adenosine present in the reaction mixture were separated with the aid of an anion exchanger.

[4] = system: endothelin receptors; test: antagonism to endothelin receptors (statement in words, no subtype); assay type: binding
Experimental: as §1
as §2, with “The precipitate was suspended in solution A and used as a crude receptor membrane fraction, which was divided into portions and stored in a frozen state at -70° C. As a radioligand, 325 Bq of ^125 I-ET-1 (81.4 TBq/mmol; manufactured by DuPont-New England Nuclear, Boston, Mss., U.S.A) was placed in a test tube. Then, the crude receptor membrane fraction (20 μg as protein) and a test compound were added thereto.” left out, “The reaction was carried out in solution B [30 mM HEPES, 0.15 M NaCl, 5 mM MgCl2, 0.5 mg/ml bacitracin, 1 mg/ml bovine serum albumin, pH 7.0) at 25° C. for 120 minutes.” left out

| Structure (SMILES) | IC50 [1] [nM] | IC50 [2] [nM] | IC50 [3] [nM] | inhibitory effect on phosphodiesterase III [3] | antagonism to endothelin receptors [4] |
| --- | --- | --- | --- | --- | --- |
| COc1cccc(Cn2nc(C(=O)O)c3c2-c2ccc(OCc4cncnc4)cc2CC3)c1 [Example 2, 4,5-dihydro-1-(3-methoxybenzyl)-7-(5-pyrimidinylmethoxy)-[1H]-benz[g]indazole-3-carboxylic acid] | 140 | 31 | – | – | – |
| CCOc1cccc(Cn2nc(C(=O)O)c3c2-c2ccc(OCc4cncnc4)cc2CC3)c1 [Example 14] | 115 | 16.8 | – | – | – |
| CCOc1cccc(C(CC)n2nc(C(=O)O)c3c2-c2ccc(OCc4cncnc4)cc2CC3)c1 (stereo not drawn) [Example 34, 4,5-dihydro-1-(3-ethoxy-α-ethylbenzyl)-7-(5-pyrimidinylmethoxy)-[1H]-benz[g]indazole-3-carboxylic acid] | 153 | 4.5 | 75 | inhibitory effect on phosphodiesterase III | excellent antagonism to endothelin receptors |
| CCOCC(c1cccc(OCC)c1)n1nc(C(=O)O)c2c1-c1ccc(OCc3cncnc3)cc1CC2 (stereo not drawn) [Example 41, 4,5-dihydro-1-(3-ethoxy-α-ethoxymethyl-benzyl)-7-(5-pyrimidinylmethoxy)-[1H]-benz[g]indazole-3-carboxylic acid] | 92 | 7.4 | – | – | – |
| CCOc1cccc(C(c2ccccn2)n2nc(C(=O)O)c3c2-c2ccc(OCc4cncnc4)cc2CC3)c1 (stereo not shown) [Example 70] | 11.3 | 2.5 | 580 | inhibitory effect on phosphodiesterase III | excellent antagonism to endothelin receptors |
